For data set [1], the system named is Rattus norvegicus. In words: Cmax in rat at 2 mg/kg, iv. As to conditions: in vivo. It counts as ADME, organism-based. The arrangement: dose 2 mg/kg, route intravenous.
For data set [2], the system named is Rattus norvegicus. In words: AUC (0 to t) in rat at 20 mg/kg, po. It counts as ADME, organism-based, Plasma. As to conditions: in vivo. On the set-up: dose 20 mg/kg, route oral.
For data set [3], the system named is Rattus norvegicus. Kind of data set: AUC (0 to t) in rat at 2 mg/kg, iv. It counts as ADME, organism-based, Plasma. The arrangement: dose 2 mg/kg, route intravenous. As to conditions: in vivo.
For data set [4], the system named is Rattus norvegicus. Kind of data set: Cmax in rat at 20 mg/kg, po. The class given is ADME, organism-based. The arrangement: dose 20 mg/kg, route oral. The conditions noted are these: in vivo.
Data set [5] deals with Rattus norvegicus. Kind of data set: Tmax in rat at 20 mg/kg, po. The conditions noted are these: in vivo. On the set-up: dose 20 mg/kg, route oral. The class given is ADME, organism-based.
Data set [6] has as its system Brain. In words: Drug uptake in rat brain at 20 mg/kg, po. The class given is ADME, organism-based. The arrangement: dose 20 mg/kg, route oral. The conditions noted are these: in vivo, read-out: Drug uptake.
For data set [7], the system named is Rattus norvegicus. In words: Volume of distribution at steady state in rat at 2 mg/kg, iv. The conditions noted are these: in vivo. It counts as ADME, organism-based. The arrangement: dose 2 mg/kg, route intravenous.
For data set [8], the system named is Plasma. Kind of data set: Plasma concentration in rat at 20 mg/kg, po. The class given is ADME, organism-based. The arrangement: dose 20 mg/kg, route oral. The conditions noted are these: in vivo.
Data set [9] is described as follows: Tmax in rat at 10 mg/kg, ip. It counts as ADME, organism-based. The arrangement: dose 10 mg/kg, route intraperitoneal. As to conditions: in vivo.
Data set [10] deals with Nucleic Acid. In words: Ratio of drug uptake from brain to plasma in rat after 30 mins. The class given is ADME. The conditions noted are these: 0.5 h.

By Cmax is commonly meant the maximum level reached in the sampled fluid or tissue. What is called Tmax is the time at which the peak concentration occurs. What is called Vdss is a proportionality between amount in the body and measured concentration, not a real space. Lower therefore signals confinement near the circulation.

As to `Cc1c(OCCCCOc2ccc(C(=O)O)cc2)ccc(C(=O)CC(C)C)c1O`, the Cmax stood at 5 µM in [1] and 2.57 µM in data set [4]. Moreover, the results for the AUCt in data set [2] and in [3] were 544.8 µmol·min/L and 231.7 µmol·min/L, respectively. Besides, the Tmax in data set [5] is listed as 135 min. Moreover, the concentration came out at 1.12 µM in data set [6] and 5.29 µM in [8]. Also, the Vdss in data set [7] was found to be 0.81 L/kg.

Regarding `Cc1c(OCCCCOc2ccc(F)c(C(=O)O)c2)ccc(C(=O)CC(C)C)c1O`, the Cmax in data set [1] is 3.52 µM; in data set [4], 12.5 µM. Besides, the AUCt worked out at 720.5 µmol·min/L in data set [2] and 123.7 µmol·min/L in data set [3]. Moreover, the time of peak concentration (Tmax) in data set [5] stood at 30 min. In addition, the values for the concentration in [6] and in data set [8] were 0.23 µM and 4.23 µM, respectively. The molecule further yielded a Vdss in data set [7] of 0.89 L/kg.

On to `COc1cc(C(=O)O)ccc1OCCCCOc1ccc(C(=O)CC(C)C)c(O)c1C`, for which the results for the Cmax in data set [1] and in data set [4] were 6.43 µM and 2.75 µM, respectively. Further, the AUCt in [2] came out at 1274.6 µmol·min/L; in [3] it was 304.6 µmol·min/L. Moreover, the Tmax in [9] came to 30 min; in [5] it was 90 min. Further, the concentration is 0.81 µM in data set [6] and 16.4 µM in data set [8]. In data set [7], this molecule came in with a Vdss of 0.55 L/kg.

With `COc1ccc(C(=O)O)cc1OCCCCOc1ccc(C(=O)CC(C)C)c(O)c1C`, the Cmax came to 2.15 µM in data set [1] and 1.05 µM in data set [4]. Also, the AUCt stood at 466.2 µmol·min/L in data set [2] and 77.2 µmol·min/L in data set [3]. Besides, the Tmax in [5] is listed as 96 min. Further, in data set [7], the Vdss was 2.87 L/kg.

`CCC(=O)c1ccc(OCCCCOc2ccc(F)c(C(=O)O)c2)c(C)c1O`: the Tmax in data set [9] came out at 30 min.

Turning to `CCCC(=O)c1ccc(OCCCCOc2cc(C(=O)O)ccc2OC)c(C)c1O`, the Tmax in [9] worked out at 30 min.

As for `COc1ccc(C(=O)O)cc1OCCCCOc1ccc(C(=O)CC(C)(C)C)c(O)c1C`, the Tmax in [9] amounted to 30 min.

Turning to `COc1cc(C(=O)O)ccc1OCCCCOc1ccc(C(=O)CC(C)(C)C)c(O)c1C`, the Tmax in data set [9] worked out at 30 min. Moreover, the BPR in [10] is listed as 0.02.

As to `Cc1c(OCCCCOc2ccc(C(=O)CC(C)(C)C)c(O)c2C)cccc1C(=O)O`, the Tmax in data set [9] is 30 min.

On to `Cc1c(OCCCCOc2ccc(F)c(C(=O)O)c2)ccc(C(=O)CC(C)(C)C)c1O`, for which, in data set [9], the Tmax was 30 min.
